Test results as given in a melting point compilation (Tetko et al.).

melting point [°C]	Structure (SMILES)
131 to 138	O=C1NC(=O)[C@@H]2CC=CC[C@H]12
119 to 124	CN(C)c1ccc(N)c([N+](=O)[O-])c1
180 to 183	Cc1nc(-c2ccc(Cl)cc2)sc1C(=O)Cl
151 to 155	COC(=O)c1sc(SC)c(S(=O)(=O)C(C)C)c1N
93 to 97	O=C(Oc1ccccc1)c1ccc2ccccc2c1O
-65	COCCCN
82 to 83	c1ccc(-c2nsc(N3CCCNCC3)n2)cc1
74 to 75	CCCCNC(=O)NCCCC
230	CCCOc1ccc2[nH]c(NC(=O)OC)nc2c1
153 to 155	Cc1nc(C)c(Br)s1
72 to 74	Cc1nc(-c2cccc(N=C=O)c2)no1
152	O=C(Nc1ccccc1SC(=O)c1ccccc1)c1ccccc1
29	COc1cccc(C)c1C
222	CCOC(=O)CCC(C)C1CCC2C3C(=O)CC4CC(=O)CCC4(C)C3CC(=O)C12C (stereo not given)
113 to 115	Cc1c(C=O)cnn1-c1ccc(F)cc1
11	OCCNc1ccccc1
194	CS(=O)(=O)c1ccc(C(=O)O)c(Cl)c1
150 to 152	O=C(COc1ccc2ccccc2c1)ON1C(=O)CCC1=O
179	CCCC(O)C1(C)CCC(C(=O)O)C(C)(C)O1 (stereo not given)
56 to 58	O=[N+]([O-])c1ccc(OCCCBr)cc1
161 to 163	Cn1ncc(C=O)c1N
136	CC(=O)Nc1ccc(Br)cc1OC(F)(F)F
53	CN(c1c(F)c(F)c(C#N)c(F)c1F)N(O)O
182 to 184	CC(/C=C(\C)c1ccc(C)cc1)=NNc1ccc([N+](=O)[O-])cc1[N+](=O)[O-]
37.5	CCCNC(C)C(=O)Nc1ccccc1C (stereo not given)
127	CCCCOc1ccc(-c2nnc3n2NC(c2ccco2)S3)cc1 (stereo not given)
174 to 176	CC(=O)Nc1c(C)cc(Cl)cc1Cl

melting point [°C]	Structure (SMILES)
114 to 115	CC(C)(Br)C(=O)NC12CC3CC(CC(C3)C1)C2
96 to 97	O=C(c1ccccc1)c1coc(-c2ccc(Cl)cc2)c1S(=O)(=O)c1ccccc1
149	NC(=O)C=Cc1ccccc1
58	COC(=O)c1cccc(C=O)c1
70.3	CC(C)(C)OC(=O)NC(Cc1ccc(Br)s1)C(=O)O (stereo not given)
72.6	CCCCCCCCCCCCCCCCCCCCCCCCCCCCCCCCCC
218	N#C/C(=N\Nc1ccc2ccccc2c1)c1nc(-c2ccc(Cl)cc2)cs1
158	COc1ccccc1C=C(C(=O)O)c1ccccc1
194	CS(=O)(=O)Nc1ccc(C#N)cc1
-50	ClC(COCC(Cl)C(Cl)(Cl)Cl)C(Cl)(Cl)Cl (stereo not given)
104	CCCCC(C(=O)O)C(=O)O
117	N#Cc1ccc(C2CCCc3cncn32)cc1 (stereo not given)
58.5	ClCC(Cl)C(Cl)=C(Cl)C(Cl)CCl (stereo not given)
144	Cc1ccccc1N/N=C(\C#N)c1nc(-c2ccccc2)cs1
325	O=C(c1ccco1)c1nn2c(nc(=O)c3ccccc32)s1
308	O=C(O)c1ccc(SSc2ccc(C(=O)O)cc2[N+](=O)[O-])c([N+](=O)[O-])c1
126	O=C(O)COc1cccc(CBr)c1
< 25	CC(=O)C=CC1C(C)=CCC(C)C1(C)C (stereo not given)
204	CC1C(=O)C23C4CC5C(C)(C)CCC(O)C56COC(CC1C2OC(C)(C)O4)C63 (stereo not given)
-39	CCOC(=O)CC(=O)C(F)(F)F
-45	CCCSc1ccccc1
74.5	CCCCCCCCCCCCCCCCOP(=O)(O)OCCCCCCCCCCCCCCCC
25	C=CCCCCCCC1CO1 (stereo not given)
89 to 92	CC(=O)c1ccn(S(=O)(=O)c2ccccc2)c1
155	COc1c2occc2c(OC)c2c(=O)cc(C)oc12
108	CN(C)CCOc1ccc(C(=C(CCCl)c2ccccc2)c2ccccc2)cc1
70	Oc1cccc2c1CCCC2

melting point [°C]	Structure (SMILES)
224 to 226	O=C(c1ccncc1)N1N=C(c2ccccc2)CC1c1cn(-c2ccccc2)nc1-c1ccccc1 (stereo not given)
223	O=C(c1ccc(O)cc1)c1ccc(O)cc1
188 to 190	Oc1ccc2ccccc2c1Cc1c(O)ccc2ccccc12
62 to 70	Brc1cccc(Cn2ccnc2)c1
103 to 105	CCC1C(C=NC(C)(C)C)=NC(C)(C)N1O (stereo not given)
97.5	CN(C)CCC=C1c2ccccc2Sc2ccc(Cl)cc21
95	Cc1cccc(NC(=O)c2cnc(C(C)(C)C)cn2)c1
38	Nc1cccc2c1CCCC2
250	CC(=O)Nc1ccccc1CCc1ccccc1NC(C)=O
240	CN(C)c1ccc(N=C(C#N)c2ccc(C(C#N)=Nc3ccc(N(C)C)cc3)cc2)cc1
135 to 137	COc1ccc(CNC(N)=S)cc1
-37.6	C=CC(OC(C)=O)OC(C)=O
164	O=C1CCc2ccccc2N1
46 to 49	COC(=O)c1cccc(OC)c1OC
260 to 261	CCOC(=O)c1cn[nH]c1NC(=O)Nc1ccc(Cl)cc1
129 to 130	COC(=O)CCC(C)C1CCC2C3CCC4CC(=O)CCC4(C)C3CC(=O)C12C (stereo not given)
94	CCN1C(=O)NC(c2ccccc2)C1=O (stereo not given)
156	O=C(C1=NOC2C(=O)N(c3ccc(F)cc3)C(=O)C12)c1ccccc1 (stereo not given)
290	Oc1cc(C(F)(F)F)nc2ccc(Br)cc12
131	CCN(CC)C(=O)C1CN2CCc3cc(OC)c(OC)cc3C2CC1OC(C)=O (stereo not given)
218	CC1=NNC(=O)C1=NNc1cccc(F)c1
139 to 143	COC(=O)c1ccc2[nH]cnc2c1
135 to 137	Nc1ccccc1SCCS(=O)(=O)c1ccc(Cl)cc1
-84.5	CCCC(=O)OC
184	CC(=O)OCC(=O)C1CCC2C3CC=C4CC(O)CCC4(C)C3CCC12C (stereo not given)
202 to 204	COC(=O)C1Cc2c([nH]c3ccccc23)C(C)(C)N1 (stereo not given)

Structure (SMILES)	melting point [°C]
O=S(=O)(Cl)c1ccsc1	44 to 45
NC(=NO)c1cccnc1	130 to 131
COc1nc(C)nc(NC(=O)NS(=O)(=O)c2ccccc2Cl)n1	176
C=COC(C)=O	-93.2
N#CCc1ccccc1C#N	73 to 79
O=C1CN2CCOC2(c2ccccc2F)c2cc(Br)ccc2N1 (stereo not given)	185
O=[N+]([O-])c1ccc(NN=Cc2cccc3c(Br)ccc([N+](=O)[O-])c23)c([N+](=O)[O-])c1	243 to 244
O=[N+]([O-])c1cc(Cl)c(O)c(Cl)c1	127
CC(C)(C)N(NC(=O)c1ccccc1)C(=O)c1ccccc1	178
O=P(N1CCOCC1)(N1CCOCC1)N1CCOCC1	190
